Measurements as given in US10538490B2, “Benzylaminopyridylcyclopropanecarboxylic acids, pharmaceutical compositions and uses thereof” (Boehringer Ingelheim International GmbH, priority 2016, dated 2020).
In brackets after ≈: the same amount, converted by molar mass.

Key:
[1] = molecular target: human GPR40 receptor (Homo sapiens, UniProt O14842); assay: IP1 accumulation measurements using the IPOne assay system; format: cell-based; details: 1321N1 cells stably expressing human GPR40 receptor, stimulation 1 h at 37° C.
Method: IP1 accumulation measurements using the IPOne assay system—1321N1 cells stably expressing human GPR40 receptor (Euroscreen, Belgium) are seeded 24 h before the assay in white 384-well plates in culture medium containing 10% FCS, 1% Na-Pyruvate and 400 μg/mL G418. IPi is assayed according to the manufacturer's description (Cisbio Bioassays, France). In brief, the assay is started by substitution of the culture medium by stimulation buffer (Hepes 10 mM, CaCl2 1 mM, MgCl2 0.5 mM, KCl 4.2 mM, NaCl 146 mM, glucose 5.5 mM and LiCl 50 mM, pH 7.4). Cells are stimulated for 1 h at 37° C., 5% CO2 by addition of the compounds that are diluted in stimulation buffer containing LiCl. Assays are stopped by adding HTRF-conjugates (IP1-d2 and Anti-IP1 cryptate Tb) and lysis buffer, provided by the manufacturer. After an incubation time of 1 h at room temperature plates are measured using an EnVision™, Perkin Elmer. The obtained fluorescence ratios at 665/615 […] are then used to calculate the pEC50 values using Assay Explorer 3.3 Software (Accelrys, Inc.) by interpolation using an IP1 reference curve and subsequent sigmoidal curve fitting allowing for a variable hill slope.

[2] = Aqueous solubility in buffer versus acetonitrile/water (1/1), LC-UV; format: physicochemical; details: kinetic from dmso stock, buffer pH 2.2, 24 h shaking, 2.5% DMSO, ">" if more than 90% dissolved
Method: The aqueous solubility of the compounds of the invention is determined by comparing the amount dissolved in buffer to the amount in an acetonitrile/water (1/1) solution. Starting from a 10 mM DMSO stock solution aliquots are diluted with acetonitrile/water (1/1) or buffer, respectively. After 24 h of shaking, the solutions are filtrated and analyzed by LC-UV. The amount dissolved in buffer is compared to the amount in the acetonitrile solution.
Solubility is usually being measured from 0.001 to 0.125 mg/mL at a DMSO concentration of 2.5%. If more than 90% of the compound is dissolved in buffer, the value is marked with “>”.

[3] = Chemical stability (degradation kinetics) at pH value of ca. 1.2; format: physicochemical; details: pH value of ca. 1.2 (acetonitrile/0.1 M aqueous HCl 2:3), 37° C., HPLC
Method: Degradation kinetics is used to simulate chemical stability of compounds in the acidic part of the gastro intestinal tract. […] Their application as medical drugs to treat human diseases is therefore less restricted and troublesome.
The chemical stability of the compounds of the invention at pH value of ca. 1.2 is determined as follows:
Compound is dissolved in an HPLC vial either in a mixture of acetonitrile/0.1 M aqueous HCl (2:3; pH ca. 1.2) or in a mixture of acetonitrile/Mcllvaine buffer pH 7.4 (2:3) to get a concentration of approximately 0.25 mg/ml. The vial was then transferred into an HPLC autosampler system and maintained at a temperature of 37° C. A first sample is taken and injected immediately into a standard HPLC system with a UV DAD detector. Further samples are injected after 2, 4, 6, 8 and 10 hours. Amount of degraded compound is measured by determining the recovery rate of compound [%] for each injection using an HPLC standard gradient method. Therefore the peak area of the main peak for the first injection (AUt0) is determined and set as 100%. Peak area of the main peak is determined also for the further injections (AUtn, n=2, 4, 6, 8, 10) and expressed as fraction of […] [%].

Chain of human GPR40 receptor (O14842 whole entry): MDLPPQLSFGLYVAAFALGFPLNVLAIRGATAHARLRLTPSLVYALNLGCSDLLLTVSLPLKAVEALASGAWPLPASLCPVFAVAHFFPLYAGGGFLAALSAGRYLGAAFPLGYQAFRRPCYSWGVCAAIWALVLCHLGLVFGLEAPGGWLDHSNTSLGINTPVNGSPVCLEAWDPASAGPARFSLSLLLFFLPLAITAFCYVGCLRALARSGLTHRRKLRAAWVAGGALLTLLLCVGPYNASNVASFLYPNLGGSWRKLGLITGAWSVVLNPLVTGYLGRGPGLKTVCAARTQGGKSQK

SMILES	EC50 [1] [nM]	solubility at 24 h [2] [µg/mL]	Amount of degradation after 2 h [3] [%]
Cc1cc(OCCC(C)(C)O)cc(C)c1-c1ccc(F)c(CNc2ccc([C@H]3C[C@@H]3C(=O)O)cn2)c1 [Example 1]	45	87 (≈ 177 µM)	–
Cc1cc(OCCC(C)(C)O)cc(C)c1-c1cc(CNc2ccc([C@H]3C[C@@H]3C(=O)O)cn2)c(F)cc1F [Example 2]	42	83 (≈ 163 µM)	–
CC(C)(O)CCOc1ccc(-c2cc(CNc3ccc([C@H]4C[C@@H]4C(=O)O)cn3)ccc2C(F)(F)F)cc1 [Example 4, (1S,2S)-2-(6-{[4′-(3-Hydroxy-3-methyl-butoxy)-6-trifluoromethyl-biphenyl-3-ylmethyl]-amino}-pyridin-3-yl)-cyclopropanecarboxylic Acid]	15	92 (≈ 179 µM)	<0.5
O=C(O)[C@H]1C[C@@H]1c1ccc(NCc2ccc(C(F)(F)F)c(-c3ccc(OCC4CC4)cc3)c2)nc1 [Example 7, (1S,2S)-2-{6-[(4′-Cyclopropylmethoxy-6-trifluoromethyl-biphenyl-3-ylmethyl)-amino]-pyridin-3-yl}-cyclopropanecarboxylic acid]	34	30 (≈ 62.2 µM)	–
Cc1cccc(C)c1-c1ccc(F)c(CNc2ccc([C@H]3C[C@@H]3C(=O)O)cn2)c1 [Example 18]	131	> 120	<0.5
Cc1ccc(Cl)c(-c2ccc(F)c(CNc3ccc([C@H]4C[C@@H]4C(=O)O)cn3)c2)c1Cl [Example 25]	41	83 (≈ 186 µM)	–
COc1cc(C)c(-c2ccc(F)c(CNc3ccc([C@H]4C[C@@H]4C(=O)O)cn3)c2)c(C)c1 [Example 26]	79	91 (≈ 216 µM)	–
COc1cc(OC)c(-c2ccc(F)c(CNc3ccc([C@H]4C[C@@H]4C(=O)O)cn3)c2)c(OC)c1 [Example 30]	877	112 (≈ 248 µM)	–
Cc1cc(C#N)cc(C)c1-c1ccc(F)c(CNc2ccc([C@H]3C[C@@H]3C(=O)O)cn2)c1 [Example 35]	137	86 (≈ 207 µM)	–
Cc1cc(O[C@H]2CCOC2)cc(C)c1-c1ccc(F)c(CNc2ccc([C@H]3C[C@@H]3C(=O)O)cn2)c1 [Example 38]	94	99 (≈ 208 µM)	–
Cc1cc(OC2CCOCC2)cc(C)c1-c1ccc(F)c(CNc2ccc([C@H]3C[C@@H]3C(=O)O)cn2)c1 [Example 42]	100	87 (≈ 177 µM)	–
Cc1cc(-c2cc(=O)n(C)cn2)cc(C)c1-c1ccc(F)c(CNc2ccc([C@H]3C[C@@H]3C(=O)O)cn2)c1 [Example 43]	54	107 (≈ 215 µM)	–
Cc1cnc(-c2cc(C)c(-c3ccc(F)c(CNc4ccc([C@H]5C[C@@H]5C(=O)O)cn4)c3)c(C)c2)nc1 [Example 53]	15	78 (≈ 162 µM)	–
Cc1cc(OCC2(O)CCOCC2)cc(C)c1-c1ccc(F)c(CNc2ccc([C@H]3C[C@@H]3C(=O)O)cn2)c1 [Example 55]	220	122 (≈ 234 µM)	–
Cc1cccc(C)c1-c1cc(CNc2ccc([C@H]3C[C@@H]3C(=O)O)cn2)c(F)cc1F [Example 61]	36	42 (≈ 103 µM)	–
Cc1ccc(Cl)c(-c2cc(CNc3ccc([C@H]4C[C@@H]4C(=O)O)cn3)c(F)cc2F)c1Cl [Example 67]	31	84 (≈ 181 µM)	–
COc1cc(C)c(-c2cc(CNc3ccc([C@H]4C[C@@H]4C(=O)O)cn3)c(F)cc2F)c(C)c1 [Example 68]	59	> 120	–
Cc1cc(C#N)cc(C)c1-c1cc(CNc2ccc([C@H]3C[C@@H]3C(=O)O)cn2)c(F)cc1F [Example 77]	83	97 (≈ 224 µM)	–
Cc1cc(O[C@@H]2CCOC2)cc(C)c1-c1cc(CNc2ccc([C@H]3C[C@@H]3C(=O)O)cn2)c(F)cc1F [Example 80]	59	106 (≈ 214 µM)	–
Cc1cc(OCC(C)(C)C#N)cc(C)c1-c1cc(CNc2ccc([C@H]3C[C@@H]3C(=O)O)cn2)c(F)cc1F [Example 88]	81	–	–
Cc1cc(OCc2ccccc2)cc(C)c1-c1cc(CNc2ccc([C@H]3C[C@@H]3C(=O)O)cn2)c(F)cc1F [Example 89]	65	–	–

SMILES	EC50 [1] [nM]	solubility at 24 h [2] [µg/mL]	Amount of degradation after 2 h [3] [%]
Cc1cc(-c2nnn(C)n2)cc(C)c1-c1cc(CNc2ccc([C@H]3C[C@@H]3C(=O)O)cn2)c(F)cc1F [Example 90]	8	89 (≈ 181 µM)	–
Cc1cc(-c2ccn(C)c(=O)n2)cc(C)c1-c1cc(CNc2ccc([C@H]3C[C@@H]3C(=O)O)cn2)c(F)cc1F [Example 91]	43	–	–
Cc1cc(-c2ccnn2C)cc(C)c1-c1cc(CNc2ccc([C@H]3C[C@@H]3C(=O)O)cn2)c(F)cc1F [Example 92]	16	103 (≈ 211 µM)	–
CCc1cccc(CC)c1-c1cc(CNc2ccc([C@H]3C[C@@H]3C(=O)O)cn2)c(F)cc1F [Example 93]	72	82 (≈ 188 µM)	–
COc1cc(OC)c(F)c(-c2cc(CNc3ccc([C@H]4C[C@@H]4C(=O)O)cn3)c(F)cc2F)c1F [Example 94]	1320	–	–
Cc1cnc(-c2cc(C)c(-c3cc(CNc4ccc([C@H]5C[C@@H]5C(=O)O)cn4)c(F)cc3F)c(C)c2)nc1 [Example 95]	11	88 (≈ 176 µM)	–
CC(C)c1ccccc1-c1cc(CNc2ccc([C@H]3C[C@@H]3C(=O)O)cn2)c(F)cc1F [Example 96]	114	–	–
Cc1cc(OCC2(O)CCOCC2)cc(C)c1-c1cc(CNc2ccc([C@H]3C[C@@H]3C(=O)O)cn2)c(F)cc1F [Example 97]	189	123 (≈ 228 µM)	–
Cc1cc(OCC2(O)CCSCC2)cc(C)c1-c1cc(CNc2ccc([C@H]3C[C@@H]3C(=O)O)cn2)c(F)cc1F [Example 98]	102	–	–
COc1cc(-c2cc(C)c(-c3cc(CNc4ccc([C@H]5C[C@@H]5C(=O)O)cn4)c(F)cc3F)c(C)c2)ccn1 [Example 99]	8	97 (≈ 188 µM)	–
Cc1cc(OCC2(O)CCS(=O)(=O)CC2)cc(C)c1-c1cc(CNc2ccc([C@H]3C[C@@H]3C(=O)O)cn2)c(F)cc1F [Example 100]	101	–	–
Cc1cc(OCC2CCOCC2)cc(C)c1-c1cc(CNc2ccc([C@H]3C[C@@H]3C(=O)O)cn2)c(F)cc1F [Example 101]	39	–	–
CNC(=O)c1cc(C)c(-c2cc(CNc3ccc([C@H]4C[C@@H]4C(=O)O)cn3)c(F)cc2F)c(C)c1 [Example 102]	420	–	–
Cc1cc(C(=O)N(C)C)cc(C)c1-c1cc(CNc2ccc([C@H]3C[C@@H]3C(=O)O)cn2)c(F)cc1F [Example 103]	462	–	–
Cc1cc(OCCCS(C)(=O)=O)cc(C)c1-c1ccc(F)c2c1CC[C@H]2Oc1ccc([C@H]2C[C@@H]2C(=O)O)cc1 [WO 2013/178575 Example 11]	–	–	5
Cc1cc(C(=O)NCC(C)(C)O)cc(C)c1-c1ccc(F)c2c1CC[C@H]2Oc1ccc([C@H]2C[C@@H]2C(=O)O)cc1 [WO 2013/178575 Example 15, reference compound]	–	< 1	3
Cc1cc(OCCC(C)(C)O)cc(C)c1-c1ccc(F)c2c1CC[C@H]2Oc1ccc([C@H]2C[C@@H]2C(=O)O)cc1 [WO 2013/178575 Example 17, reference compound]	–	< 1	8
Cc1cccc(C)c1-c1ccc(F)c2c1CC[C@H]2Oc1ccc(C2CC2C(=O)O)cc1 (some centres unmarked) [WO 2013/178575 Example 33]	–	–	8
Cc1cc(-c2nnn(C)n2)cc(C)c1-c1ccc(F)c2c1CC[C@H]2Oc1ccc([C@H]2C[C@@H]2C(=O)O)cc1 [WO 2013/178575 Example 45, reference compound]	–	< 1	–
Cc1c(C#N)cccc1-c1ccc(F)c2c1CC[C@H]2Oc1ccc([C@H]2C[C@@H]2C(=O)O)cc1 [WO 2013/178575 Example 54, reference compound]	–	< 1	2.5
